Literature values, collected in article PMC6219411 (Drug Design, Development and Therapy, 2018).

Conditions: oral preparation

mean elimination half-life: 40 to 50 h
time to maximum plasma concentrations: ≤ 2 h
Structure (SMILES): CC(C)(C#N)c1cc(Cn2cncn2)cc(C(C)(C)C#N)c1 [anastrozole, Anastrozole]
